27 molecules from US7009052B2, “Sulfonamide derivatives” (Warner Lambert Company LLC, priority 2003, dated 2006) can be followed below.

Where only a bound is given, the exact number is not on record here.

In this experiment the target is T1, androgen receptor (Homo sapiens, UniProt P10275).
T1 sequence (P10275 1-920 Q868H): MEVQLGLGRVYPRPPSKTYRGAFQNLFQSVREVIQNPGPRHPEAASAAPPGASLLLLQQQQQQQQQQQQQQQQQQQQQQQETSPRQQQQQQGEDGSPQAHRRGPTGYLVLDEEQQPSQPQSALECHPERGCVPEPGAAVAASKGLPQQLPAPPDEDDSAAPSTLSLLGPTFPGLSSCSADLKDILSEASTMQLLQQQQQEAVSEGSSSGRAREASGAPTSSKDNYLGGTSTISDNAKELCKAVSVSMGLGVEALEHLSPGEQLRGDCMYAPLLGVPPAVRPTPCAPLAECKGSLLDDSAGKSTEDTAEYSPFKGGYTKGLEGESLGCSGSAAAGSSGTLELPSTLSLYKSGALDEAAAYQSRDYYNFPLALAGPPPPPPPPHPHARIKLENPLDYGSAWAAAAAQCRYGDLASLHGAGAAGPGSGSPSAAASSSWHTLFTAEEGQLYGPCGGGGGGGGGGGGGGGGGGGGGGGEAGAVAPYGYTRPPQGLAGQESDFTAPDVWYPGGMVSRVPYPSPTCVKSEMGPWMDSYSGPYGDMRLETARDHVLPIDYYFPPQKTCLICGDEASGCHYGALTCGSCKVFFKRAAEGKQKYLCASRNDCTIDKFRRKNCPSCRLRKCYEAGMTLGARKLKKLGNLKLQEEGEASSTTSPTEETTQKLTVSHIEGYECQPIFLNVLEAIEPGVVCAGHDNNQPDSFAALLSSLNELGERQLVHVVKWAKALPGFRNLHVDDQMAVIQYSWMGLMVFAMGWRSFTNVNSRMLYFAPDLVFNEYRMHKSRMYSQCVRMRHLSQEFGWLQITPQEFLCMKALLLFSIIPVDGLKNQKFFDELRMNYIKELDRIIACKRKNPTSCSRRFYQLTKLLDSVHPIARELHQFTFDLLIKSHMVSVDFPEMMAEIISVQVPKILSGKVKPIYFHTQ
The experiment is described as follows: AR Antagonist Cell Assay (MMTV-luciferase reporter, DHT-induced). Conditions: MDA-MB453-MMTV clone 54-19 cells, 100 pM DHT, 17 hr. The experiment is classed as cell-based. The protocol: The compounds ability to antagonize the effects of androgen on the androgen receptor were determined in the protocol described immediately below.
Experimental Procedure for AR Antagonist Cell Assay
Cell line: MDA-MB453-MMTV clone 54-19. This cell line is a stable transfected cell line with MDA-MB453 cell background (human breast tumor cell expressing high level of androgen receptor). A MMTV minimal promoter containing ARE was first cloned in front of a firefly luciferase reporter gene. Then the cascade was cloned into transfection vector pUV120puro. Electroporation method was used for transfecting MDA-MB-453 cell. Puromycin resistant stable cell line was selected.
Cell Culture Media and Reagents:
Culture medium: DMEM (high glucose, Gibco cat #: 11960-044), 10% FBS, and 1% L-glutamine
Plating medium: DMEM (phenol red free), 10% charcoal treated HyClone serum, 1% L-glutamine
Assay medium: DMEM (phenol red free), 1% charcoal treated HyClone serum, 1% L-glutamine, and 1% penicillin/streptomycin
3× luciferase buffer: 2% beta-mercaptoethanol, 0.6% ATP, 0.0135% luciferine in cell lysis buffer
• 1. Cells are maintained in culture medium, splitting cells when they reach 80–90% confluence • 2. To test compounds, 10,000 cells/well are plated to opaque 96 cell culture plate in 100 ul/well plating medium, culture for overnight at 37° C. in cell culture incubator • 3. Carefully remove plating medium, then add 80 ul/well of pre-warmed assay medium, add 10 ul/well testing compound (final concentration at 10 uM or 1 uM), incubate at 37° C. for 30 minutes • 4. Add 10 ul/well freshly prepared DHT (final concentration at 100 pM) to each well, incubate at 37° C. for 17 hr (overnight) • 5. Add 50 ul/well 3× luciferase buffer, incubate at room temperature for 5 minutes, then count on Luminometer The fold induction over background by 100 pM DHT in the absence of testing compounds is standardized as 100% and experimental result is expressed as percentage of inhibition by testing compounds. TABLE3
For orientation: Reporter assays use an easily measured gene product as a stand-in for the process of interest.
For the molecule `CCc1cccc(NS(=O)(=O)c2ccc3[nH]c(=O)cc(C(F)(F)F)c3c2)c1` [Example 88, 2-Oxo-4-trifluoromethyl-1,2-dihydroquinoline-6-sulfonic acid(3-ethylphenyl)amide], the midpoint of inhibition, the IC50, lay at 130 nM.
With `Cn1c(=O)cc(C(F)(F)F)c2cc(S(=O)(=O)Nc3cnc4ccccc4c3)ccc21` [Example 33, 1-Methyl-2-oxo-4-trifluoromethyl-1,2-dihydroquinoline-6-sulfonicacid quinolin-3-ylamide], the IC50 (commonly the concentration needed to halve the response being measured) was more than 10000 nM.
The value for `COc1ccccc1CCNS(=O)(=O)c1ccc2[nH]c(=O)cc(C(F)(F)F)c2c1` [Example 135, 2-Oxo-4-trifluoromethyl-1,2-dihydroquinoline-6-sulfonic acid[2-(2-methoxyphenyl)ethyl]amide] was 170 nM.
The value for `CCCCN(C)S(=O)(=O)c1ccc2c(c1)c(C(F)(F)F)cc(=O)n2C` [Example 8, 1-Methyl-2-oxo-4-trifluoromethyl-1,2-dihydroquinoline-6-sulfonicacid butyimethylamide] was more than 10000 nM; that for `C[C@@H](NS(=O)(=O)c1ccc2[nH]c(=O)cc(C(F)(F)F)c2c1)c1ccccc1` [Example 125, 2-Oxo-4-trifluoromethyl-1,2-dihydroquinoline-6-sulfonic acid(1-phenylethyl)amide] was 2940 nM; that for `Cn1c(=O)cc(C(F)(F)F)c2cc(S(=O)(=O)Nc3cccc(OC(F)F)c3)ccc21` [Example 38, 1-Methyl-2-oxo-4-trifluoromethyl-1,2-dihydroquinoline-6-sulfonicacid (3-difluoromethoxy-phenyl)amide] was 5630 nM.
With `CSc1ccccc1CNS(=O)(=O)c1ccc2[nH]c(=O)cc(C(F)(F)F)c2c1` [Example 143, 2-Oxo-4-trifluoromethyl-1,2-dihydroquinoline-6-sulfonic acid2-methylsulfanylbenzylamide], the IC50 came out at 840 nM.
The figure for `CC(C)Oc1cccc(NS(=O)(=O)c2ccc3c(c2)c(C(F)(F)F)cc(=O)n3C)c1` [Example 37, 1-Methyl-2-oxo-4-trifluoromethyl-1,2-dihydroquinoline-6-sulfonicacid (3-isopropoxyphenyl)-amide] is 6100 nM; for `CC(C)NS(=O)(=O)c1ccc2[nH]c(=O)cc(C(F)(F)F)c2c1` [Example 117, 2-Oxo-4-trifluoromethyl-1,2-dihydroquinoline-6-sulfonic acidisopropylamide] it is 2340 nM; for `O=c1cc(C(F)(F)F)c2cc(S(=O)(=O)NCC3CCCCC3)ccc2[nH]1` [Example 123, 2-Oxo-4-trifluoromethyl-1,2-dihydroquinoline-6-sulfonic acidcyclohexylmethylamide] it is 8510 nM.
In turn, `CSc1cccc(NS(=O)(=O)c2ccc3c(c2)c(C(F)(F)F)cc(=O)n3C)c1` [Example 29, 1-Methyl-2-oxo-4-trifluoromethyl-1,2-dihydroquinoline-6-sulfonicacid (3-methylsulfanylphenyl)amide] registered an IC50 of 3720 nM.
The value for `O=c1cc(C(F)(F)F)c2cc(S(=O)(=O)Nc3ccccc3Br)ccc2[nH]1` [Example 110, 2-Oxo-4-trifluoromethyl-1,2-dihydroquinoline-6-sulfonic acid(2-bromophenyl)amide] was more than 10000 nM; that for `CCOc1ccccc1CNS(=O)(=O)c1ccc2[nH]c(=O)cc(C(F)(F)F)c2c1` [Example 136, 2-Oxo-4-trifluoromethyl-1,2-dihydroquinoline-6-sulfonic acid2-ethoxybenzylamide] was 580 nM; that for `O=c1cc(C(F)(F)F)c2cc(S(=O)(=O)Nc3ccc4c(c3)OCO4)ccc2[nH]1` [Example 98, 2-Oxo-4-trifluoromethyl-1,2-dihydroquinoline-6-sulfonic acidbenzo[1,3]dioxol-5-ylamide] was more than 10000 nM.
With `Cc1ccc(NS(=O)(=O)c2ccc3c(c2)c(C(F)(F)F)cc(=O)n3C)cc1` [Example 14, 1-Methyl-2-oxo-4-trifluoromethyl-1,2-dihydroquinoline-6-sulfonicacid p-tolylamide], the IC50 was 1030 nM.
The figure for `Cc1cccc(NS(=O)(=O)c2ccc3[nH]c(=O)cc(C(F)(F)F)c3c2)c1` [Example 82, 2-Oxo-4-trifluoromethyl-1,2-dihydroquinoline-6-sulfonic acidm-tolylamide] is 830 nM.
The figure for `O=c1cc(C(F)(F)F)c2cc(S(=O)(=O)Nc3cccc(OCc4ccccc4)c3)ccc2[nH]1` [Example 114, 2-Oxo-4-trifluoromethyl-1,2-dihydroquinoline-6-sulfonic acid(3-benzyloxyphenyl)amide] is more than 10000 nM.
The value for `Cn1c(=O)cc(C(F)(F)F)c2cc(S(=O)(=O)Nc3ccc4c(c3)OCO4)ccc21` [Example 26, 1-Methyl-2-oxo-4-trifluoromethyl-1,2-dihydroquinoline-6-sulfonicacid benzo[1,3]dioxol-5-ylamide] was 4040 nM; that for `Cn1c(=O)cc(C(F)(F)F)c2cc(S(=O)(=O)Nc3ccc(-n4ccc(C(F)(F)F)n4)cc3)ccc21` [Example 47, 1-Methyl-2-oxo-4-trifluoromethyl-1,2-dihydroquinoline-6-sulfonicacid [4-(3-trifluoromethylpyrazol-1-yl)phenyl]amide] was 2960 nM; that for `CC(CNS(=O)(=O)c1ccc2c(c1)c(C(F)(F)F)cc(=O)n2C)c1ccccc1` (stereo not drawn) [Example 56, 1-Methyl-2-oxo-4-trifluoromethyl-1,2-dihydroquinoline-6-sulfonicacid (2-phenylpropyl)amide] was 2730 nM.
Take `O=c1cc(C(F)(F)F)c2cc(S(=O)(=O)NCc3ccccc3C(F)(F)F)ccc2[nH]1` [Example 153, 2-Oxo-4-trifluoromethyl-1,2-dihydroquinoline-6-sulfonic acid2-trifluoromethylbenzylamide]: the IC50 came to 750 nM.
With `O=c1cc(C(F)(F)F)c2cc(S(=O)(=O)NCc3ccccc3OC(F)F)ccc2[nH]1` [Example 151, 2-Oxo-4-trifluoromethyl-1,2-dihydroquinoline-6-sulfonic acid2-difluoromethoxybenzylamide], the IC50 is 730 nM.
`O=c1cc(C(F)(F)F)c2cc(S(=O)(=O)NCc3cc(Cl)ccc3F)ccc2[nH]1` [Example 146, 2-Oxo-4-trifluoromethyl-1,2-dihydroquinoline-6-sulfonic acid5-chloro-2-fluorobenzylamide]: the midpoint of inhibition, the IC50, lay at 6540 nM.
Regarding `Cc1ccc(NS(=O)(=O)c2ccc3[nH]c(=O)cc(C(F)(F)F)c3c2)cc1` [Example 83, 2-Oxo-4-trifluoromethyl-1,2-dihydroquinoline-6-sulfonic acidp-tolylamide], half-maximal inhibition (IC50) required 1140 nM.
`COc1ccc(OC)c(NS(=O)(=O)c2ccc3[nH]c(=O)cc(C(F)(F)F)c3c2)c1` [Example 102, 2-Oxo-4-trifluoromethyl-1,2-dihydroquinoline-6-sulfonic acid(2,5-dimethoxyphenyl)amide] returned an IC50 of 7860 nM.
On to `Cc1ccc(F)cc1NS(=O)(=O)c1ccc2c(c1)c(C(F)(F)F)cc(=O)n2C` [Example 30, 1-Methyl-2-oxo-4-trifluoromethyl-1,2-dihydroquinoline-6-sulfonicacid (5-fluoro-2-methylphenyl)amide], for which the IC50 is more than 10000 nM.
Turning to `CN(CCC#N)S(=O)(=O)c1ccc2[nH]c(=O)cc(C(F)(F)F)c2c1` [Example 77, 2-Oxo-4-trifluoromethyl-1,2-dihydroquinoline-6-sulfonic acid(2-cyanoethyl)methylamide], the IC50 worked out at 1040 nM.
